Details: Gas, Capillary tube (Ostwald / Ubbelohde) method

[HH] [hydrogen]
Details | viscosity [mPa·s]
294.1 K, 34430 kPa | 0.00964
294.52 K, 4680 kPa | 0.00901
294.91 K, 10160 kPa | 0.00911
295 K, 81640 kPa | 0.01139
295.01 K, 52730 kPa | 0.01021
295.02 K, 99320 kPa | 0.01196
333.28 K, 4940 kPa | 0.00983
333.3 K, 48480 kPa | 0.01055
333.31 K, 69110 kPa | 0.01122
333.31 K, 94920 kPa | 0.01217
333.32 K, 9480 kPa | 0.0099
400.1 K, 28190 kPa | 0.01115
400.11 K, 4830 kPa | 0.01109
400.11 K, 9190 kPa | 0.01127
400.11 K, 49790 kPa | 0.01163
400.12 K, 71210 kPa | 0.01217

N#N [nitrogen]
Details | viscosity [mPa·s]
297.22 K, 31330 kPa | 0.02799
297.23 K, 40300 kPa | 0.03044
297.24 K, 50620 kPa | 0.03457
297.25 K, 24520 kPa | 0.02464
297.25 K, 85020 kPa | 0.0474
297.26 K, 70280 kPa | 0.04283
297.3 K, 570 kPa | 0.01774
297.32 K, 2900 kPa | 0.01836
297.32 K, 4960 kPa | 0.01892
297.33 K, 9020 kPa | 0.0199
297.45 K, 60740 kPa | 0.03906
297.46 K, 95040 kPa | 0.05291
333.14 K, 10530 kPa | 0.02163
333.16 K, 15340 kPa | 0.0222
333.22 K, 24490 kPa | 0.02538
333.3 K, 34970 kPa | 0.02945
333.42 K, 48850 kPa | 0.03239
333.51 K, 74270 kPa | 0.03968
333.59 K, 95150 kPa | 0.04811
400.07 K, 7230 kPa | 0.02297
400.07 K, 10740 kPa | 0.02334
400.07 K, 15630 kPa | 0.02427
400.07 K, 25910 kPa | 0.02639
400.07 K, 35280 kPa | 0.0284
400.07 K, 47240 kPa | 0.03189
400.07 K, 65020 kPa | 0.03573
400.07 K, 95070 kPa | 0.04385
499.24 K, 30120 kPa | 0.02951
499.24 K, 48890 kPa | 0.03275
499.24 K, 69570 kPa | 0.03658
499.24 K, 94610 kPa | 0.04084
499.43 K, 10560 kPa | 0.02699
